Data on two compounds can be found in patent publication US12599575B2, “Antimicrobial adjuvant containing biphenyl derivative compound as active ingredient, and uses thereof” (KOREA RESEARCH INSTITUTE OF BIOSCIENCE AND BIOTECHNOLOGY, priority 2021, dated 2026).

“Also recorded” adds a separate entry of the source.

In this assay the test system is Acinetobacter baumannii colistin resistance 357 (R357 strains). In kind it is cell-based.

For the compound `Cc1cc([N+](=O)[O-])cc(-c2ccc(Cl)cc2)c1O` [PA108], under “PA108 5 μM alone”, the “cell growth inhibitory effect (respiration rate), PA108 alone” value was “no self cell growth inhibitory effect”. Also, for the setting “compound 5 μM + PMB 16 μg/mL, 37° C., 24 hours”, the “bacterial growth inhibitory effect (relative respiration rate) in combination with PMB” value is given as “an activity to improve bacterial susceptibility to a polymyxin-based antibiotic; also recorded: cellular respiration was effectively inhibited”.

polymyxin B [PMB, reference compound]: under “PMB 16 μg/mL alone”, the “cell growth inhibitory effect (respiration rate), PMB alone” value is recorded as “no cell growth inhibitory effect”.
